Measurements: publication PMC8187479, “Sugar phosphate activation of the stress sensor eIF2B” (Nature Communications, 2021)

How the values were obtained:
eIF2B(βδγε) = biological target: T1, eIF2B(βδγε) (Homo sapiens, UniProt P49770+Q9UI10); assay: Isothermal titration calorimetry, eIF2B(βδγε) subcomplex; format: binding; conditions: ITC
T1 construct: made in house
Protocol: Interactions between recombinant protein and sugar phosphates were conducted with a MicroCal PEAQ-ITC (Malvern Panalytical Inc.). Experiments were performed in 25 mM HEPES, 150 mM NaCl, pH 7.5 at 20 °C. The sugar phosphate concentration in the syringe was 1 mM or 1.5 mM, and ~3.5 μL aliquots were injected into cells containing 300 μL eIF2Bα or eIF2B(βδγε) at a concentration of 20–30 μM. The final titration curves were fitted using MicroCal ITC data analysis software, assuming a single binding site per monomer.

eIF2Bα^V183F [1] = biological target: eIF2Bα^V183F (Homo sapiens, UniProt Q14232, V183F); assay: Isothermal titration calorimetry, eIF2Bα V183F; format: binding; conditions: ITC
Protocol: Interactions between recombinant protein and sugar phosphates were conducted with a MicroCal PEAQ-ITC (Malvern Panalytical Inc.). Experiments were performed in 25 mM HEPES, 150 mM NaCl, pH 7.5 at 20 °C. […] The final titration curves were fitted using MicroCal ITC data analysis software, assuming a single binding site per monomer.

[2] = biological target: T2, eIF2B in WT HEK293T lysate (Homo sapiens, UniProt P49770+Q14232+Q9UI10); assay: GEF activity assay with WT HEK293T lysate; format: biochemical
T2 construct: endogenous in cells; host or cells: HEK293T (wild type) lysate
T2 sequence (Q14232 whole entry): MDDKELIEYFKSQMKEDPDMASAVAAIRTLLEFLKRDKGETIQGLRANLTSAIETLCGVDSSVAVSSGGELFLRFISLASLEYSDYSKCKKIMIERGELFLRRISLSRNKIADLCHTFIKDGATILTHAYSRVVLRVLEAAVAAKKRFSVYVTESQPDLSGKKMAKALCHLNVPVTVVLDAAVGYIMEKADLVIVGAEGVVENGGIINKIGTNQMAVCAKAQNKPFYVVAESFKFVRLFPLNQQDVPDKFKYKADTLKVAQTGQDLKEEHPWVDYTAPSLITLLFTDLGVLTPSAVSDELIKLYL
T2 sequence (P49770 whole entry): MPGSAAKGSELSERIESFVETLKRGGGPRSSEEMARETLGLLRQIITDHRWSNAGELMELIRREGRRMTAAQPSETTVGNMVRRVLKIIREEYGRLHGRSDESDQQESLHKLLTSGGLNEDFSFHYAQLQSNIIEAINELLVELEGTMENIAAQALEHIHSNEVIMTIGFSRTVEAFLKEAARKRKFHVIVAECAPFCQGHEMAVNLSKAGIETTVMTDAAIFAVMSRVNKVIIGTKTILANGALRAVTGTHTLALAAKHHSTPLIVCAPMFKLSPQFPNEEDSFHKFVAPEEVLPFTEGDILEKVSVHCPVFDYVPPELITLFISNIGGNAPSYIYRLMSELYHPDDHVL
T2 sequence (Q9UI10 whole entry): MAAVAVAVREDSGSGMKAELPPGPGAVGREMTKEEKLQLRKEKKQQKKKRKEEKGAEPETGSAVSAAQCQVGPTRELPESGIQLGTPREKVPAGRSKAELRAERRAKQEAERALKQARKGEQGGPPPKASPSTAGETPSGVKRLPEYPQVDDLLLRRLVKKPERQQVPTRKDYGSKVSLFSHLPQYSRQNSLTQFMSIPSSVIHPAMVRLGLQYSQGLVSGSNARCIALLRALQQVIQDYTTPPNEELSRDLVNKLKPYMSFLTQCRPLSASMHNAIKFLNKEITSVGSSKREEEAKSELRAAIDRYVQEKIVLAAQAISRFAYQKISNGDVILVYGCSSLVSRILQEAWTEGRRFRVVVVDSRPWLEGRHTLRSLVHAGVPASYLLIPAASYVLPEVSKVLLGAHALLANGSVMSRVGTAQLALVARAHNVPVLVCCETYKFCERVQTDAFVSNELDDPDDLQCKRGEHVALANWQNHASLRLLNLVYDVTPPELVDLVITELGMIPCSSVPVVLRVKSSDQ
T2 sequence (Q9NR50 whole entry partner): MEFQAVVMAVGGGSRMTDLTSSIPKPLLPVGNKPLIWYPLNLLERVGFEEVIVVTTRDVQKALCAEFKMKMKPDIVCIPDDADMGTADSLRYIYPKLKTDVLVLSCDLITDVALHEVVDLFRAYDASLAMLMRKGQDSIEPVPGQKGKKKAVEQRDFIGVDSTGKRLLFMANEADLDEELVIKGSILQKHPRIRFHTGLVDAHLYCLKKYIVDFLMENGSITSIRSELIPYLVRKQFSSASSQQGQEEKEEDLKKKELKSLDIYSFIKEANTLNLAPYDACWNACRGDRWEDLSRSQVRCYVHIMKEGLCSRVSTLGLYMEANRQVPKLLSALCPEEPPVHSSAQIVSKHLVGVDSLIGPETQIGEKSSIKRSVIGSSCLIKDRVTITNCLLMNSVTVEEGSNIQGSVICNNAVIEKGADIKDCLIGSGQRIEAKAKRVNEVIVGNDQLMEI
T2 sequence (Q13144 whole entry partner): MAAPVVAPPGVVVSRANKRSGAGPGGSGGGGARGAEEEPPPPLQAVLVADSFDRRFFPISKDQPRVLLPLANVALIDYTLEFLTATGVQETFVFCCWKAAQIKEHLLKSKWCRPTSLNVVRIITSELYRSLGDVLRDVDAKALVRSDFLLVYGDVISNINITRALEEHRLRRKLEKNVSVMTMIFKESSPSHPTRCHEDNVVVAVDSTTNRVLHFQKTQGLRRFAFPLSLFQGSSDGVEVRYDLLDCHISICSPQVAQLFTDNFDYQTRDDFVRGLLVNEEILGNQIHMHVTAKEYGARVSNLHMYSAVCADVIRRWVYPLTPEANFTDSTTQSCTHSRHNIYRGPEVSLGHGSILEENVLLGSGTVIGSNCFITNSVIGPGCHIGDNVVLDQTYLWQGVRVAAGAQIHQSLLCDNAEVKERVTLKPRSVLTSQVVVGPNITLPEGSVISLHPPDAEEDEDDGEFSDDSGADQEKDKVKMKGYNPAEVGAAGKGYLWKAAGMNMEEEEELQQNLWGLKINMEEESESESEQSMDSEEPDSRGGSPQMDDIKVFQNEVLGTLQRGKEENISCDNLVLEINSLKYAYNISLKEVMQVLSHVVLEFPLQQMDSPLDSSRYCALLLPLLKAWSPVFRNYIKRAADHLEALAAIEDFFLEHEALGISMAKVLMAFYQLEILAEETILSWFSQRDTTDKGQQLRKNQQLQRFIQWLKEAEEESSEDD
Protocol: Bodipy-FL-GDP-loaded eIF2 was used as a substrate for recombinant eIF2B. The assay was performed in 384-well plates. Reactions were read on a SpectraMax i3x plate reader (Molecular Devices) using the instrument’s Softmax Pro software with the following parameters: plate temperature = 25 °C; excitation wavelength = 485 nm (15 nm width); emission wavelength = 535 nm (25 nm width); read duration = 30 min at 45 s intervals. Data were analyzed in Prism. GDP release half-lives were calculated by fitting single-exponential decay curves.
For unbiased screening, MIDAS metabolite libraries at 10 mM stock concentration were dispensed into wells of the assay plate using an Echo Acoustic Liquid Handler (Labcyte). In a final assay volume of 10 μL/well, the following conditions were kept constant: 25 nM Bodipy-FL-GDP-loaded eIF2, 4 nM phospho-eIF2, 0.1 mM GDP, 1 mg/mL BSA, 1 nM eIF2B, 10 μM metabolite. A single well was run for each metabolite. For targeted experiments with recombinant wild-type and mutant eIF2Bα, the following conditions were used: 50 nM Bodipy-FL-GDP-loaded eIF2, 0.1 mM GDP, 1 mg/ml BSA, 20 nM eIF2B. For targeted experiments with HEK293T lysates, the following conditions were used: 50 nM Bodipy-FL-GDP-loaded eIF2, 0.1 mM GDP, 1 mg/ml BSA, 0.1 or 0.3 mg/ml lysates.

[3] = biological target: T3, eIF2B decamer in WT HEK293T lysate (Homo sapiens, UniProt P49770+Q14232+Q9UI10); assay: Sucrose gradient centrifugation, eIF2B complex assembly, WT HEK293T lysate; format: biochemical; conditions: 400 mM KCl, 5–20% sucrose gradient
T3 construct: endogenous in cells; host or cells: HEK293T (wild type) lysate
T3 sequence (Q14232 whole entry): as the sequence (Q14232 whole entry) above
T3 sequence (P49770 whole entry): as the sequence (P49770 whole entry) above
T3 sequence (Q9UI10 whole entry): as the sequence (Q9UI10 whole entry) above
T3 sequence (Q9NR50 whole entry partner): as the sequence (Q9NR50 whole entry partner) above
T3 sequence (Q13144 whole entry partner): as the sequence (Q13144 whole entry partner) above
Protocol: WT or eIF2Bα mutant HEK293T cells were harvested and lysed in 50 mM HEPES, 400 mM KCl, 1 mM DTT, 4 mM Mg(OAc)2, pH 7.5 + 0.5% Triton-X-100 + EDTA-free protease inhibitor cocktail (Roche) on ice for 30 min. Lysates were cleared by centrifugation at 48,000 × g, 4 °C for 30 min. 100 μL of each cleared lysate was loaded onto a 5–20% sucrose gradient prepared in a 13 × 51 mm ultracentrifuge tube using a Gradient Station (Biocomp) and centrifuged in a SW55 Ti rotor at 152,000 × g, 4 °C for 12 h. After centrifugation, 24 × 200 μL fractions were manually collected from the top to bottom of each gradient. Each fraction was subjected to methanol/chloroform precipitation and SDS-PAGE followed by Western Blot with the indicated antibodies. Blots were imaged on a ChemiDoc MP (Bio-Rad), and band intensities were quantified using the instrument’s Image Lab software. Each value was then divided by total intensity obtained across all fractions to determine percent enrichment of each subunit in each fraction.

[4] = biological target: T4, recombinant eIF2B(βδγε) ± eIF2Bα2 (Homo sapiens, UniProt P49770+Q14232+Q9UI10); assay: Size-exclusion chromatography of recombinant eIF2B(βδγε) with or without eIF2Bα; format: biochemical; conditions: SEC, recombinant eIF2B(βδγε) + eIF2Bα2; 500 nM ISRIB, 200 μM F6P
T4 construct: made in house; host or cells: eIF2Bα: E. coli BL21(DE3)
T4 sequence (Q14232 whole entry): as the sequence (Q14232 whole entry) above
T4 sequence (P49770 whole entry): as the sequence (P49770 whole entry) above
T4 sequence (Q9UI10 2-523): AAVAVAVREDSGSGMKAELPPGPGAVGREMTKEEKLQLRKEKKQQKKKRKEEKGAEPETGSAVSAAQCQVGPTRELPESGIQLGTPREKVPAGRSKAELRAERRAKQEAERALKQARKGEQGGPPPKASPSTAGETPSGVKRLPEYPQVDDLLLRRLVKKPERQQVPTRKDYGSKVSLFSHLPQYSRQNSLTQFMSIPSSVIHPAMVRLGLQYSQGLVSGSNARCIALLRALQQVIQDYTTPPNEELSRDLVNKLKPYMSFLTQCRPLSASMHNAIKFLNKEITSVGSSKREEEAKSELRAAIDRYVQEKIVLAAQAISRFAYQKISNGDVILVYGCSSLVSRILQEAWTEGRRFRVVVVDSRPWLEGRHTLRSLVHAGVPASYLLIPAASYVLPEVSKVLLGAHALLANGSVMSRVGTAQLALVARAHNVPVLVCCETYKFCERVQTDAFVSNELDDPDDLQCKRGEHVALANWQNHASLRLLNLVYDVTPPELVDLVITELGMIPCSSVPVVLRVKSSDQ
T4 sequence (Q9NR50 whole entry partner): as the sequence (Q9NR50 whole entry partner) above
T4 sequence (Q13144 whole entry partner): as the sequence (Q13144 whole entry partner) above
Protocol: (§1) Purified proteins were thawed and centrifuged at 20,000 × g, 10 min, 4 °C to remove any potential precipitate. Concentrations of eIF2B(βδγε) and eIF2Bα were normalized to 2 μM and 2.4 μM, respectively. 0.2 mL of each mixture was injected onto a Superose 6 Increase 10/300 column connected to an AKTA Pure 25 FPLC system (GE Healthcare). The system was run at 0.5 mL/min for 1 h using 25 mM HEPES, 200 mM KCl, 2 mM MgCl2, 1 mM DTT, pH 7.5 as the mobile phase. For conditions with ISRIB, the protein samples and mobile phase were supplemented with 500 nM ISRIB. For conditions with F6P, the protein samples and mobile phase were supplemented with 200 μM F6P. UV280 measurements were obtained directly by the instrument.

[5] = biological target: T5, recombinant eIF2B(βδγε) ± eIF2Bα2 (Homo sapiens, UniProt P49770+Q9UI10); assay: as above; format: biochemical; conditions: SEC, recombinant eIF2B(βδγε); 500 nM ISRIB, 200 μM F6P
T5 construct: made in house; host or cells: eIF2Bα: E. coli BL21(DE3)
T5 sequence (P49770 whole entry): as the sequence (P49770 whole entry) above
T5 sequence (Q9UI10 2-523): as the sequence (Q9UI10 2-523) above
T5 sequence (Q9NR50 whole entry partner): as the sequence (Q9NR50 whole entry partner) above
T5 sequence (Q13144 whole entry partner): as the sequence (Q13144 whole entry partner) above
Protocol: as §1

eIF2Bα^V183F [6] = biological target: T6, eIF2Bα^V183F (Homo sapiens, UniProt Q14232, V183F); assay: Size-exclusion chromatography of recombinant eIF2Bα V183F, alone or with eIF2B(βδγε); format: biochemical; conditions: SEC, eIF2Bα V183F alone
T6 construct: made in house; host or cells: E. coli BL21(DE3)
T6 sequence (Q14232 1-305 V183F): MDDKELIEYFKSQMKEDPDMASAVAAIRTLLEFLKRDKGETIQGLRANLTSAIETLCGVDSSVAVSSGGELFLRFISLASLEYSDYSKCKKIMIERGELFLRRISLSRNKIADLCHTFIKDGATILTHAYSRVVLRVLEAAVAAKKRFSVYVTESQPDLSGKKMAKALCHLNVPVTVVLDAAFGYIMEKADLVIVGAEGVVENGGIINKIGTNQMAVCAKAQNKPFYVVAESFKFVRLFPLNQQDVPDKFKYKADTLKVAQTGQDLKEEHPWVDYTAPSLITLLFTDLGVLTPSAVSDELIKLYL
Protocol: as §1

T1 sequence (P49770 whole entry): as the sequence (P49770 whole entry) above
T1 sequence (Q9UI10 whole entry): as the sequence (Q9UI10 whole entry) above
T1 sequence (Q9NR50 whole entry partner): as the sequence (Q9NR50 whole entry partner) above
T1 sequence (Q13144 whole entry partner): as the sequence (Q13144 whole entry partner) above

O=C(CO)[C@@H](O)[C@H](O)[C@H](O)COP(=O)(O)O [F6P, fructose-6-phosphate]
interaction with eIF2B(βδγε) subcomplex (eIF2B(βδγε)): did not interact appreciably | Kd (eIF2Bα^V183F [1]): 6.3 ± 0.7 µM | effect on GEF activity of WT lysate [2]: stimulated | eIF2B decamer formation (migration of eIF2Bα and eIF2Bδ) [3]: induced stabilization of the eIF2B decamer comparable to ISRIB | complex formation in the presence of eIF2Bα [4]: enhances eIF2B complex stability | complex formation in the absence of eIF2Bα [5]: ineffective at promoting complex formation | monomer-to-dimer shift of eIF2Bα V183F (eIF2Bα^V183F [6]): induced a partial shift from the monomer to the dimer peak
